Series [1] relates to Sprague-Dawley rats. Put plainly: Inhibition of phosphate and sodium absorption in intestinal tract of rats after single administration (urinary phosphorus, urinary sodium, fecal form). The conditions noted are these: normal rats. Type of series: in vivo, rat. The protocol: The compound represented by formula (I) was evaluated by measuring the concentrations of urinary phosphorus and urinary sodium, as well as fecal form.
(§1) Six-week-old Sprague-Dawley rats were purchased from Beijing Vital River Laboratory Animal Technology Co., Ltd. Two rats in each cage were placed in the SPF-grade animal room, and the rats were acclimatized for about one week. Throughout the study, the animals were given ad libitum access to feed and water, and the light cycle was 12 h of light and 12 h of darkness. Animal groups: vehicle group, n=5; tenapanor 0.3 mg/kg group, n=5; compound represented by formula (I) 0.03 mg/kg group, n=5; compound represented by formula (I) 0.1 mg/kg group, n=5; compound represented by formula (I) 0.3 mg/kg group, n=5; and compound represented by formula (I) 1.0 mg/kg group, n=5.
On the day of the experiment, the test compound or vehicle (0.5% Tween 80+99.5% distilled water) was administered intragastrically to the animals after 8 h of fasting. Then, the animals were transferred into metabolism cages for single-cage feeding, and the feed was restored. Sixteen hours after administration, urine samples were collected, food consumption was recorded, and fecal form in the collection funnel was evaluated by two independent observations. Fecal form scoring criteria: 1. normal pellets; 2. slightly soft feces (pellets adhered to the side wall of the collector due to moisture); 3. soft feces (loss of normal shape of the pellets); 4. loose and amorphous (complete loss of shape, accompanied by a blot pattern); and 5. diarrhea (watery feces). Fecal form score (FFS) in rats was determined by averaging two independent observation scores for all rats in the same group (n=5); and the mean value for the vehicle group was 1.
The urine was centrifuged at 4° C. at 3220 g for 5 min, and the urinary phosphorus concentration (phosphomolybdic acid ultraviolet endpoint colorimetric method) and urinary sodium concentration (ion selective electrode method) were measured.
(§2) The results were expressed as mean±standard error (Means±SEM). The urinary phosphorus excretion amount (or urinary sodium excretion amount) in the rats was normalized and corrected against the respective dietary phosphorus (or sodium) intake. The formula was as follows: normalized correction value of urinary phosphorus excretion amount (expressed as nP)=urinary phosphorus excretion amount+dietary phosphorus intake; normalized correction value of urinary sodium excretion amount (expressed as nNa)=urinary sodium excretion amount+dietary sodium intake; one-way analysis of variance was adopted; and fecal form score was verified by the non-parametric test. *, p<0.05; **, p<0.01; ***, p<0.001; ****, p<0.0001.

Series [2] deals with Sprague-Dawley rats. Put plainly: Effect of multiple administrations on serum phosphorus concentration in rats (serum phosphorus, 24-h urinary phosphorus and sodium, fecal form). Type of series: in vivo, rat. The conditions noted are these: for 24-h nP, course: after 15 days; for serum phosphorus concentration: intragastric twice a day. The procedure: as §1, with “The compound represented by formula (I) was evaluated by measuring the serum phosphorus concentration, concentrations of urinary phosphorus and urinary sodium, and fecal form in rats. Six-week-old” for “Six-week-old”, “Tenapanor 0.05 mg/kg,” for “tenapanor 0.3 mg/kg group,”, “0.01 mg/kg,” for “0.03 mg/kg group,”, “0.05 mg/kg,” for “0.1 mg/kg group,”, “0.5 mg/kg,” for “0.3 mg/kg group,”, “mg/kg,” for “mg/kg group,”
After the start of the experiment, the feeding rhythm of the rats was adjusted to diurnal feeding in a manner of overnight fasting for 16 h and restoring feed for 8 h during the day. After the start of administration, the test compound or vehicle (0.5% Tween 80+99.5% distilled water) was administered intragastrically twice a day during the feeding period, with an interval of 4 h, for 14 consecutive days. The body weight of animals and food consumption were measured daily. The serum phosphorus concentration (including baseline values before the administration), 24-hour urinary phosphorus excretion amount, and 24-hour urinary sodium excretion amount were measured 1-2 times a week, and fecal form in the collection funnel was scored (fecal form was assessed by two independent observations). Fecal form scoring criteria: 1. normal pellets; 2. slightly soft feces (pellets adhered to the side wall of the collector due to moisture); 3. soft feces (loss of normal shape of the pellets); 4. loose and amorphous (complete loss of shape, accompanied by a blot pattern); and 5. diarrhea (watery feces). Fecal form score (FFS) in rats was determined by averaging two independent observation scores for all rats in the same group (n=5); and the mean value for the vehicle group was 1.
After being left to stand at room temperature for 2 h, the blood was centrifuged at 4° C. at 4500 g for 10 min; the urine was centrifuged at 4° C. at 3220 g for 5 min; and the serum phosphorus concentration and urinary phosphorus concentration (phosphomolybdic acid ultraviolet endpoint colorimetric method), as well as urinary sodium concentration (indirect ion electrode method) were measured.
as §2, with “error (Means±SEM), n=5 animals/group.” for “error (Means±SEM).”, “intake; two-way” for “intake; one-way”, “p<0.05; **” for “p<0.05; **,”, “p<0.01; ***” for “p<0.01; ***,”

Experimental findings from patent US20250368618A1, “BENZOHETEROCYCLIC SUBSTITUTED TETRAHYDROISOQUINOLINE COMPOUND SALT FORM AND PREPARATION METHOD THEREFOR” (SHANGHAI JEYOU PHARMACEUTICAL CO., LTD., priority 2022, published 2025) are described below.

As to `CN1Cc2c(Cl)cc(Cl)cc2[C@H](c2ccc3cn(CCOCCOCCNC(=O)NCCCCNC(=O)NCCOCCOCCn4cc5ccc([C@@H]6CN(C)Cc7c(Cl)cc(Cl)cc76)cc5n4)nc3c2)C1` [compound represented by formula (I)], the “urinary phosphorus excretion amount (nP)” value is recorded as “dose-effect relationship” in the series with Sprague-Dawley rats [1] (single intragastric administration, 0.03, 0.1, 0.3, 1.0 mg/kg, urine 16 h after administration, dose dependence); “significantly reduce” in the series with Sprague-Dawley rats [1] (single intragastric administration, doses of 0.3 mg/kg and 1.0 mg/kg, urine 16 h after administration). Also, the “water content in the feces (fecal form score)” value in the series on Sprague-Dawley rats [1] (single intragastric administration, 0.03-1.0 mg/kg, 16 h) is listed as “tendency to increase with the increase in the dose”. Besides, the “urinary phosphorus excretion amount (nP), comparison with Tenapanor” value in the series on Sprague-Dawley rats [1] (single intragastric administration, same dose 0.3 mg/kg of both) is on record as “better than Tenapanor”. The “urinary sodium excretion amount (nNa)” value in the series on Sprague-Dawley rats [1] (single intragastric administration, urine 16 h after administration) is given as “significantly reduce”. Also, the “24-h nP” value in the series on Sprague-Dawley rats [2] (after 1 day of treatment, 1.0 mg/kg, vs vehicle) is listed as “significantly reduced”; in the series on Sprague-Dawley rats [2] (after 10 days of treatment, 0.01, 0.05, 0.5 and 1.0 mg/kg, vs vehicle), “significantly reduced”. In the series with Sprague-Dawley rats [2] (after 1 day of treatment, 0.01, 0.05, 0.5 and 1.0 mg/kg, vs vehicle), the “24-h nP (urinary phosphorus excretion amount normalized to dietary phosphorus intake)” value was “decreasing trend”. In addition, the “24-h nNa (urinary sodium excretion amount normalized to dietary sodium intake)” value in the series with Sprague-Dawley rats [2] (after 1 day of treatment, 0.01, 0.05, 0.5 and 1.0 mg/kg, vs vehicle control) is reported as “significantly reduced”. For the same molecule, in the series on Sprague-Dawley rats [2] (after 1 day of treatment, 0.01-1.0 mg/kg), the “24-h nP, dose dependence” value was “The higher the dose, the lower the nP”. In addition, in the series with Sprague-Dawley rats [2] (after 1 day of treatment, 0.05, 0.5 and 1.0 mg/kg, vs vehicle control), the fecal form score result was “increased significantly”. In the series on Sprague-Dawley rats [2] (after 10 days of treatment, 0.01 mg/kg and 0.05 mg/kg), the “24-h nNa, course” value is given as “rising trend”. Further, the “24-h nP, course” value is “tended to be stable” with Sprague-Dawley rats [2] and “rising trend” with Sprague-Dawley rats [2] (low-dose group 0.01 mg/kg). In the series with Sprague-Dawley rats [2] (high-dose groups 0.5 mg/kg and 1.0 mg/kg), the “loose feces, severity” value is on record as “more severe loose feces”. The “frequency of loose feces observed” value in the series with Sprague-Dawley rats [2] (high-dose groups 0.5 mg/kg and 1.0 mg/kg, as the administration continued) is reported as “decreased”. Also, the serum phosphorus concentration entry is “significantly reduced” in the series on Sprague-Dawley rats [2] (after 4 days of treatment, 0.5 mg/kg or 1.0 mg/kg, vs vehicle control); “significantly reduced” with Sprague-Dawley rats [2] (after 10 days of treatment, 0.01, 0.05, 0.5 and 1.0 mg/kg, vs vehicle control). In the series with Sprague-Dawley rats [2] (low dose 0.01 mg/kg), the “loose feces, occurrence” value is reported as “No rats had loose feces”. Besides, in the series with Sprague-Dawley rats [2] (twice a day, after 10 days, groups other than the highest dose 1.0 mg/kg), the “serum phosphorus concentration, course” value is “tended to be stable”.
